Laboratory results: patent publication US20200247800A1, “SUBSTITUTED BICYCLIC HETEROCYCLIC COMPOUNDS AS NADPH OXIDASE INHIBITORS” (Glenmark Pharmaceuticals S.A., priority 2017, published 2020)

Target: T1, human NOX4 (Homo sapiens, UniProt Q9NPH5)
T1 construct: expressed in transfected cells; membrane fraction used
T1 sequence (Q9NPH5 1-578): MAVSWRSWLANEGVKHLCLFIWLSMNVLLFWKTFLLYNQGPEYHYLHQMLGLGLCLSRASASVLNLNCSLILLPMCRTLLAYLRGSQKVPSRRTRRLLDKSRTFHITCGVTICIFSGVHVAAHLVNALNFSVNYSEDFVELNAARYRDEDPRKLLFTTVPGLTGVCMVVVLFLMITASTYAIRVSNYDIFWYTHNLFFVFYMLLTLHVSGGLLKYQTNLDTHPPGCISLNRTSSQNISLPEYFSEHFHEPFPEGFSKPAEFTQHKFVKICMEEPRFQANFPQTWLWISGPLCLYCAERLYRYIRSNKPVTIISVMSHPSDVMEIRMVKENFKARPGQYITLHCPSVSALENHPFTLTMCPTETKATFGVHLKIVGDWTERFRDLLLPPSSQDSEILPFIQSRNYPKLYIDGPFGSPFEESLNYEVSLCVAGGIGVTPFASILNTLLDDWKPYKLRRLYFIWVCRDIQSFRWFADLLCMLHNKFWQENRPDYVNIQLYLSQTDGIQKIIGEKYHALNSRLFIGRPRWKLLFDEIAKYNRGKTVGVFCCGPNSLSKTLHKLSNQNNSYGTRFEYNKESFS
T1 sequence (P13498 1-195 partner): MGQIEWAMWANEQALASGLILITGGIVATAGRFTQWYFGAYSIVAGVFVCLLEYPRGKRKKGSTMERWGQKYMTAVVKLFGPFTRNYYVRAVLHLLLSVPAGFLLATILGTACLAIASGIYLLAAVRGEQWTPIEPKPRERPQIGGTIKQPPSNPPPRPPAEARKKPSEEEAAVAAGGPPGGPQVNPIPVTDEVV
Experiment: Cell free membrane based in vitro NOX4 assay: H2O2 production by membranes expressing human NOX4, measured with Amplex Red
Type: biochemical
Details: for inhibition at 1 µM: 1.0 μM compound, read-out: Percentage inhibition at 1.0 μM; for IC50: class symbols; for inhibition at 10 µM: 10.0 μM compound, read-out: Percentage inhibition at 10.0 μM
In short: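 IC50 came from concentration-response curves fitted as % of the inhibitor-free maximum. H2O2 formation was monitored for 10 min via Amplex Red/HRP fluorescence (544/590 nm) after NADPH start. Membranes from a stable hNOX4/HEK line had 20 min exposure to inhibitor beforehand at pH 7.4.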

CCc1nn(CCCN2CCOCC2)c2[nH]c(-c3cccc(C(F)(F)F)c3F)c(O)c(=O)c12 [Example 174, 3-Ethyl-6-(2-fluoro-3-(trifluoromethyl)phenyl)-5-hydroxy-1-(3-morpholinopropyl)-1H-pyrazolo[3,4-b]pyridin-4(7H)-one]
inhibition at 1 µM: 85.6% | IC50: 100 to 150 nM

Cn1nc(C(F)(F)F)c2c(=O)c(O)c(-c3ccc(F)cc3Cl)[nH]c21 [Example 44, 6-(2-Chloro-4-fluorophenyl)-5-hydroxy-1-methyl-3-(trifluoromethyl)-1,7-dihydro-4H pyrazolo[3,4-b]pyridin-4-one]
inhibition at 1 µM: 84.6% | inhibition at 10 µM: 100% | IC50: > 150 nM

CCCn1nc(CC)c2c(=O)c(O)c(-c3ccc(F)cc3F)[nH]c21 [Example 170, 6-(2,4-Difluorophenyl)-3-ethyl-5-hydroxy-1-propyl-1H-pyrazolo[3,4-b]pyridin-4(7H)-one]
inhibition at 1 µM: 74.4% | IC50: > 150 nM

Cn1nc(C(F)(F)F)c2c(=O)c(O)c(-c3cc(CNC(=O)C(C)(C)C)ccc3F)[nH]c21 [Example 135, N-(4-Fluoro-3-(5-hydroxy-1-methyl-4-oxo-3-(trifluoromethyl)-4,7-dihydro-1H-pyrazolo[3,4-b]pyridin-6-yl)benzyl)pivalamide]
inhibition at 1 µM: 71% | inhibition at 10 µM: 90.7% | IC50: > 150 nM

CCn1nc(C)c2c(=O)c(O)c(-c3ccccc3OC)[nH]c21 [Example 110, 1-Ethyl-5-hydroxy-6-(2-methoxyphenyl)-3-methyl-1H-pyrazolo[3,4-b]pyridin-4(7H)-one]
inhibition at 1 µM: 60.5% | inhibition at 10 µM: 63% | IC50: > 150 nM

CCc1nn(C)c2[nH]c(-c3cccc(C(F)(F)F)c3F)c(O)c(=O)c12 [Example 160, 3-Ethyl-6-(2-fluoro-3-(trifluoromethyl)phenyl)-5-hydroxy-1-methyl-1H-pyrazolo[3,4-b]pyridine-4(7H)-one]
inhibition at 1 µM: 80.7% | inhibition at 10 µM: 68.9% | IC50: > 150 nM

Cc1nn(C)c2[nH]c(-c3ccc(F)cc3Cl)c(O)c(=O)c12 [Example 12, 6-(2-Chloro-4-fluorophenyl)-5-hydroxy-1,3-dimethyl-1,7-dihydro-4H-pyrazolo[3,4-b]pyridin-4-one]
inhibition at 1 µM: 95% | inhibition at 10 µM: 86% | IC50: 50 to 100 nM

Cn1nc(C2CCN(S(C)(=O)=O)CC2)c2c(=O)c(O)c(-c3ccccc3Cl)[nH]c21 [Example 194, 6-(2-chlorophenyl)-5-hydroxy-1-methyl-3-(1-(methylsulfonyl)piperidin-4-yl)-1H-pyrazolo[3,4-b]pyridin-4(7H)-one]
inhibition at 1 µM: 98.3% | inhibition at 10 µM: 96% | IC50: 50 to 100 nM

Cc1nn(CCN2CCN(C)CC2)c2[nH]c(-c3c(F)cccc3F)c(O)c(=O)c12 [Example 169, 6-(2,6-Difluorophenyl)-5-hydroxy-3-methyl-1-(2-(4-methylpiperazin-1-yl)ethyl)-1H-pyrazolo[3,4-b]pyridin-4(7H)-one]
inhibition at 1 µM: 83.7% | IC50: 50 to 100 nM

CCCn1nc(C)c2c(=O)c(O)c(-c3c(F)cccc3F)[nH]c21 [Example 79, 6-(2,6-Difluorophenyl)-5-hydroxy-3-methyl-1-propyl-1H-pyrazolo[3,4-b]pyridin-4(7H)-one]
inhibition at 1 µM: 78.4% | inhibition at 10 µM: 81.6% | IC50: 100 to 150 nM

Cc1nn(C2CCCCC2)c2[nH]c(-c3c(F)cccc3F)c(O)c(=O)c12 [Example 136, 1-Cyclohexyl-6-(2,6-difluorophenyl)-5-hydroxy-3-methyl-1,7-dihydro-4H-pyrazolo[3,4-b]pyridin-4-one]
inhibition at 1 µM: 85% | inhibition at 10 µM: 87.5% | IC50: < 50 nM

CCc1nn(CCN2CCN(C)CC2)c2[nH]c(-c3cccc(C(F)(F)F)c3F)c(O)c(=O)c12 [Example 179, 3-Ethyl-6-(2-fluoro-3-(trifluoromethyl)phenyl)-5-hydroxy-1-(2-(4-methylpiperazin-1-yl)ethyl)-1H-pyrazolo[3,4-b]pyridin-4(7H)-one]
inhibition at 1 µM: 92.3% | IC50: 100 to 150 nM

CCc1nn(C)c2[nH]c(-c3cc(F)cc(F)c3)c(O)c(=O)c12 [Example 162, 6-(3,5-Difluorophenyl)-3-ethyl-5-hydroxy-1-methyl-1H-pyrazolo[3,4-b]pyridine-4(7H)-one]
inhibition at 1 µM: 74.8% | IC50: > 150 nM

CCCn1nc(C)c2c(=O)c(O)c(-c3ccc(OC)cc3F)[nH]c21 [Example 82, 6-(2-Fluoro-4-methoxyphenyl)-5-hydroxy-3-methyl-1-propyl-1H-pyrazolo[3,4-b]pyridin-4(7H)-one]
inhibition at 1 µM: 87.5% | IC50: 50 to 100 nM

Cc1c2oc(-c3ccccc3Cl)c(O)c(=O)c2nn1C [Example 227, 5-(2-chlorophenyl)-6-hydroxy-2,3-dimethylpyrano[3,2-c]pyrazol-7(2H)-one]
inhibition at 1 µM: 6.03% | inhibition at 10 µM: 16%

Cn1nc(C(F)(F)F)c2c(=O)c(O)c(-c3ccccc3F)[nH]c21 [Example 41, 6-(2-Fluorophenyl)-5-hydroxy-1-methyl-3-(trifluoromethyl)-1,7-dihydro-4H-pyrazolo[3,4-b]pyridin-4-one]
inhibition at 1 µM: 77.7% | inhibition at 10 µM: 87.6% | IC50: > 150 nM

CC(=O)Oc1c(-c2c(F)cccc2F)[nH]c2c(c(C)nn2C)c1=O [Example 226]
inhibition at 1 µM: 22.9% | inhibition at 10 µM: 66.9%

COc1ccc(-c2[nH]c3c(c(C)nn3C3CC3)c(=O)c2O)c(F)c1 [Example 114, 1-Cyclopropyl-6-(2-fluoro-4-methoxyphenyl)-5-hydroxy-3-methyl-1H-pyrazolo[3,4-b]pyridin-4(7H)-one]
inhibition at 1 µM: 61% | inhibition at 10 µM: 69.9% | IC50: > 150 nM

COCCOc1ccc(-c2[nH]c3c(c(C)nn3C)c(=O)c2O)c(Cl)c1 [Example 65, 6-(2-Chloro-4-(2-methoxyethoxy)phenyl)-5-hydroxy-1,3-dimethyl-1H-pyrazolo[3,4-b]pyridin-4(7H)-one]
inhibition at 1 µM: 74.7% | inhibition at 10 µM: 63.1% | IC50: > 150 nM

Cn1nc(CN2CCN(CC(F)(F)F)CC2)c2c(=O)c(O)c(-c3c(F)cccc3F)[nH]c21 [Example 196, 3-((4-(2,2,2-trifluoroethyl)piperazin-1-yl)methyl)-6-(2,6-difluorophenyl)-5-hydroxy-1-methyl-1H-pyrazolo[3,4-b]pyridin-4(7H)-one]
inhibition at 1 µM: 100% | inhibition at 10 µM: 100% | IC50: 100 to 150 nM

Cn1ncc2c(=O)c(O)c(-c3ccc(F)c(C(F)(F)F)c3)[nH]c21 [Example 6, 6-[4-Fluoro-3-(trifluoromethyl)phenyl]-5-hydroxy-1-methyl-1,7-dihydro-4H-pyrazolo[3,4-b]pyridin-4-one]
inhibition at 1 µM: 96.3% | inhibition at 10 µM: 94.3% | IC50: 100 to 150 nM

CCn1nc(C)c2c(=O)c(O)c(-c3ccc(OCC4CC4)cc3F)[nH]c21 [Example 121, 6-[4-(Cyclopropylmethoxy)-2-fluorophenyl]-1-ethyl-5-hydroxy-3-methyl-1,7-dihydro-4H-pyrazolo[3,4-b]pyridin-4-one]
inhibition at 1 µM: 70.2% | IC50: > 150 nM

Cc1nn(CCN2CCOCC2)c2[nH]c(-c3ccccc3C(F)(F)F)c(O)c(=O)c12 [Example 152, 5-Hydroxy-3-methyl-1-(2-morpholinoethyl)-6-(2-(trifluoromethyl)phenyl)-1H-pyrazolo[3,4-b]pyridin-4(7H)-one]
inhibition at 1 µM: 93.5% | inhibition at 10 µM: 89.9% | IC50: 100 to 150 nM
